Patent US20230278972A1, “SUBSTITUTED HALOALKYL SULFONANILIDE HERBICIDES” (FMC Corporation, priority 2020, published 2023)

Assays:
Assay type in all cases: in vivo
[1] = tested on: blackgrass (Alopecurus myosuroides); experiment: Test A1 preemergence, blackgrass
Summary of the method: (§1)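 Herbicidal response was scored on plants treated either preemergence, by directed spray onto soil of a loam–sand blend after sowing, or postemergence on potted plants at the one- to two-leaf stage, 2–10 cm high. Test chemicals were carried in a non-phytotoxic solvent mix with surfactant.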

[2] = tested on: Ryegrass, Italian (Italian ryegrass, Lolium multiflorum); experiment: Test A1 postemergence, Ryegrass, Italian; settings: for Plant response rating, Ryegrass, Italian: Postemergence
Summary of the method: (§2)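 Both timings started from seed in a loam-sand blend. Preemergence pots got a directed soil application immediately; postemergence pots were sprayed when seedlings had one or two leaves and stood 2–10 cm. Each compound was prepared in a non-phytotoxic solvent plus surfactant.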

[3] = tested on: goosegrass (Eleusine indica); experiment: Test A1 postemergence, goosegrass; settings: for Plant response rating, Goosegrass: Postemergence
Summary of the method: as §2

[4] = tested on: goosegrass (Eleusine indica); experiment: Test A1 preemergence, goosegrass
Summary of the method: as §1

[5] = tested on: corn (Zea mays); experiment: Test A1 postemergence, corn; settings: Postemergence
Summary of the method: as §1

[6] = tested on: Pigweed, Palmer (palmer amaranth, palmer pigweed, Amaranthus palmeri); experiment: Test A1 preemergence, Pigweed, Palmer
Summary of the method: as §1

[7] = tested on: soybean (Glycine max); experiment: Test A1 preemergence, soybean
Summary of the method: as §1

[8] = 31 g ai/ha, 0 to 100 scale (0 no effect, 100 complete control)
[9] = 125 g ai/ha, 0 to 100 scale, 0 no effect, 100 complete control
[10] = 31 g ai/ha, 0 to 100 scale (0 no effect, 100 complete control), 10 days
[11] = 31 g ai/ha, postemergence, 0 to 100 scale (0 no effect, 100 complete control)

Compound	Plant response rating, Blackgrass [1, 8]	Plant response rating, Blackgrass [1, 9]	Plant response rating, Ryegrass, Italian [2, 10]	Plant response rating, Ryegrass, Italian ([2]; 125 g ai/ha, 0 to 100 scale)	Plant response rating, Goosegrass [3, 10]	Plant response rating, Goosegrass ([3]; 125 g ai/ha, 0 to 100 scale)	Plant response rating, Goosegrass [4, 8]	Plant response rating, Goosegrass [4, 9]	Plant response rating, Corn [5, 10]	Plant response rating, Corn ([5]; 125 g ai/ha, 0 to 100 scale)	Plant response rating, Pigweed, Palmer [6, 8]	Plant response rating, Pigweed, Palmer [6, 9]	Plant response rating, Soybean [7, 8]	Plant response rating, Soybean [7, 9]	Ryegrass, Italian plant response rating [2, 11]	Goosegrass plant response rating [3, 11]
CCc1cc(C)c(NS(=O)(=O)C(F)(F)F)cc1C1=NOC2CCCC12 (centres unmarked) [Compound 305]	10	40	0	40	10	80	90	90	0	0	40	60	0	40		
Cc1c(C(=O)N2CCOCC2)cc(N(COC(=O)C(C)(C)C)S(=O)(=O)C(F)(F)F)c(C)c1C [Compound 324, [[(Trifluoromethyl)sulfonyl][2,3,4-trimethyl-5-(4-morpholinylcarbonyl)phenyl]amino]methyl 2,2-dimethylpropanoate]	20	30	0	30	30	80	80	100	30	30	100	100	20	60		
Cc1c(NS(=O)(=O)C(F)(F)F)cc(C(=O)N2CCCCC2)c(C)c1C [Compound 326]	0	0	0	30	0	80	90	90	0	0	90	100	40	90		
Cc1c(NS(=O)(=O)C(F)(F)F)cc(C(=O)N2CC(C)OC(C)C2)c(C)c1C (centres unmarked) [Compound 328]	20	30	30	60	20	80	40	80	0	50	100	100	50	90		
C#CCN(C)C(=O)c1cc(NS(=O)(=O)C(F)(F)F)c(Cl)c(F)c1C [Compound 337]	40	60	0	20	0	90	50	100	30	40	40	100	40	90		
COCC1CC(c2cc(N(COC(=O)C(C)(C)C)S(=O)(=O)C(F)(F)F)c(C)cc2C)=NO1 (centres unmarked) [Compound 338]	0	0	0	10	0	70	40	100	10	30	0	40	0	20		
Cc1cc(C)c(C2=NOC3(C)CCCC23)cc1NS(=O)(=O)C(F)(F)F (centres unmarked) [Compound 340]	60	90	0	20	60	90	100	100	20	50	60	100	40	90		
Cc1cc(C)c(N(COC(=O)C(C)(C)C)S(=O)(=O)C(F)(F)F)cc1C1=NOC2(C)CCCC12 (centres unmarked) [Compound 341]	0	30	0	0	0	60	30	100	0	0	0	20	0	0		
CCC1ON=C(c2cc(NS(=O)(=O)C(F)(F)F)c(C)cc2C)C1CC (centres unmarked) [Compound 343]	60	90	20	80	40	90	90	100	10	40	40	90	50	60		
CCC1ON=C(c2cc(N(COC(=O)C(C)(C)C)S(=O)(=O)C(F)(F)F)c(C)cc2C)C1CC (centres unmarked) [Compound 344]	0	30	30	40	0	30	20	90	20	50	50	80	50	50		
CCC1ON=C(c2cc(N(C(=O)OCC(C)C)S(=O)(=O)C(F)(F)F)c(C)cc2C)C1CC (centres unmarked) [Compound 345]	40	70	20	60	0	70	30	90	0	50	80	100	0	0		
CCC1ON=C(c2cc(N(COC(=O)C(C)(C)C)S(=O)(=O)C(F)(F)F)c(C)cc2C)C1CC (centres unmarked) [Compound 347]	10	30	0	60	0	40	10	60	0	10	20	50	0	0		
Cc1c(NS(=O)(=O)C(F)(F)F)cc(C(=O)N2CCC(C)CC2)c(C)c1C [Compound 366]	0	50		20		80	10	80	0	0	100	100	0	50	0	0
